Source: article PMC7584476, “Safety and efficacy of BAY1436032 in IDH1-mutant AML: phase I study results” (Leukemia, 2020)

Tested on: subjects with mIDH1 advanced AML
Assay: Phase I study: safety and tolerability (TEAE, DLT, MTD, ECG)
Type: in vivo
Description: This study was an open-label, nonrandomized, multicenter phase I trial. Subjects were screened at 13 hospital sites in 2 countries (USA and Germany). The study was to consist of dose-escalation followed by dose-expansion. The MTD identified in dose-escalation was to be used in the dose-expansion. If MTD was not reached in dose-escalation, a dose for the expansion would be selected based on available PK, pharmacodynamic, safety, and efficacy data. BAY1436032 was administered twice-daily (BID) in continuous 28-day cycles. In dose-escalation, up to 9 evaluable subjects could be enrolled per cohort, with a minimum of 3 dose-limiting toxicity (DLT)-free evaluable subjects required prior to escalating to the next highest dose. Bayesian dose-DLT modeling was performed to help guide dosing decisions.
DLTs were differentially defined for nonhematopoietic versus hematopoietic toxicities. Nonhematopoietic toxicities of ≥grade 3 occurring during the first cycle of treatment were to be considered DLTs with the following exceptions: (1) Alopecia and nausea controlled by medical management; (2) Tumor lysis syndrome if successfully managed clinically and resolved within 7 days without any end-organ damage; (3) Differentiation syndrome (DS) if successfully managed clinically and resolved within 7 days without any end-organ damage; (4) Asymptomatic ≥grade 3 electrolyte abnormalities not considered clinically significant by the investigator. […] For certain toxicities such as laboratory assessments without a clear clinical correlate, a discussion between the investigator and the sponsor determined whether the adverse event (AE) should be assessed as a DLT.
DLTs identified during the first cycle of treatment were used to guide dose-escalation decisions and to determine the MTD, and if safety issues appeared in subsequent cycles they were also to be considered. Hydroxyurea was permitted during the first cycle if white blood cell (WBC) exceeded 20 × 10^9/L and was also permitted for treatment of DS.
Safety and tolerability were evaluated by analysis of adverse events, physical examinations, vital signs, ECOG performance status, and various laboratory assessments. For safety monitoring, subjects were scheduled for clinic visits every week for the initial three cycles of treatment, after which time visits could be reduced to every-other-week with investigator and sponsor agreement. Cardiac function was assessed with triplicate 12-lead electrocardiograms (ECG) at screening, C1-D1, C1-D2, C1-D15, D1 of every subsequent cycle, and at treatment end. […] AEs are presented by the Medical Dictionary for Regulatory Activities (MedDRA) v21.1.

C[C@H]1C[C@@H](n2c(Nc3ccc(OC(F)(F)F)cc3)nc3cc(CCC(=O)O)ccc32)CC(C)(C)C1 [BAY1436032]
TEAE Hypokalaemia Grade 1 (1200 mg BID, n=7): 1 | TEAE Hypokalaemia Grade 2 (1200 mg BID, n=7): 0 | TEAE Hypokalaemia Grade 3 (1200 mg BID, n=7): 0 | TEAE Hyponatraemia Grade 1 (1200 mg BID, n=7): 0 | TEAE Hyponatraemia Grade 3 (1200 mg BID, n=7): 0 | TEAE Hypophosphataemia Grade 1 (1200 mg BID, n=7): 0 | TEAE Hypophosphataemia Grade 2 (1200 mg BID, n=7): 0 | TEAE Leukocytosis Grade 2 (1200 mg BID, n=7): 1 | TEAE Leukocytosis Grade 3 (1200 mg BID, n=7): 0 | TEAE Lung infection Grade 3 (1200 mg BID, n=7): 1 | TEAE Lung infection Grade 5 (1200 mg BID, n=7): 0 | TEAE Nausea Grade 1 (1200 mg BID, n=7): 2 | TEAE Nausea Grade 2 (1200 mg BID, n=7): 0 | TEAE Nausea Grade 3 (1200 mg BID, n=7): 0 | TEAE Oedema peripheral Grade 1 (1200 mg BID, n=7): 2 | TEAE Oedema peripheral Grade 3 (1200 mg BID, n=7): 0 | TEAE Pain in extremity Grade 1 (1200 mg BID, n=7): 1 | TEAE Pain in extremity Grade 2 (1200 mg BID, n=7): 0 | TEAE Pneumonia Grade 1 (1200 mg BID, n=7): 0 | TEAE Pneumonia Grade 2 (1200 mg BID, n=7): 1 | TEAE Pneumonia Grade 3 (1200 mg BID, n=7): 1 | TEAE Pneumonia fungal Grade 2 (1200 mg BID, n=7): 0 | TEAE Pneumonia fungal Grade 3 (1200 mg BID, n=7): 0 | TEAE Pneumonia fungal Grade 4 (1200 mg BID, n=7): 0 | TEAE Productive cough Grade 1 (1200 mg BID, n=7): 1 | TEAE Productive cough Grade 2 (1200 mg BID, n=7): 0 | TEAE Pyrexia Grade 1 (1200 mg BID, n=7): 1 | TEAE Pyrexia Grade 2 (1200 mg BID, n=7): 0 | TEAE Pyrexia Grade 3 (1200 mg BID, n=7): 0 | TEAE Rash Grade 1 (1200 mg BID, n=7): 1 | TEAE Rash Grade 2 (1200 mg BID, n=7): 0 | TEAE Sepsis Grade 4 (1200 mg BID, n=7): 0 | TEAE Sepsis Grade 5 (1200 mg BID, n=7): 0 | TEAE Sinus tachycardia Grade 1 (1200 mg BID, n=7): 0 | TEAE Thrombocytopenia Grade 4 (1200 mg BID, n=7): 1 | TEAE Vomiting Grade 1 (1200 mg BID, n=7): 0 | TEAE Weight decreased Grade 1 (1200 mg BID, n=7): 1 | TEAE Weight decreased Grade 2 (1200 mg BID, n=7): 2 | TEAE Weight decreased Grade 3 (1200 mg BID, n=7): 0 | Related TEAE Decreased appetite Grade 1 (1500 mg BID, n=9): 0 | Related TEAE Decreased appetite Grade 2 (1500 mg BID, n=9): 0 | Related TEAE Diarrhea Grade 2 (1500 mg BID, n=9): 0 | Related TEAE Differentiation syndrome Grade 2 (1500 mg BID, n=9): 1 | Related TEAE Differentiation syndrome Grade 3 (1500 mg BID, n=9): 0 | Related TEAE Dyspnea Grade 1 (1500 mg BID, n=9): 0 | Related TEAE Dyspnea Grade 2 (1500 mg BID, n=9): 0 | Related TEAE Fatigue Grade 1 (1500 mg BID, n=9): 0 | Related TEAE Fatigue Grade 2 (1500 mg BID, n=9): 0 | Related TEAE Fatigue Grade 3 (1500 mg BID, n=9): 1 | Related TEAE Hypomagnesaemia Grade 1 (1500 mg BID, n=9): 1 | Related TEAE Nausea Grade 1 (1500 mg BID, n=9): 1 | Related TEAE Nausea Grade 2 (1500 mg BID, n=9): 0 | Related TEAE Sinus tachycardia Grade 1 (1500 mg BID, n=9): 1 | Related TEAE Vomiting Grade 1 (1500 mg BID, n=9): 1 | TEAE Abdominal pain upper Grade 1 (1500 mg BID, n=9): 2 | TEAE Abdominal pain upper Grade 2 (1500 mg BID, n=9): 1 | TEAE Acute kidney injury Grade 1 (1500 mg BID, n=9): 0 | TEAE Acute kidney injury Grade 2 (1500 mg BID, n=9): 0 | TEAE Acute kidney injury Grade 3 (1500 mg BID, n=9): 0 | TEAE Anaemia Grade 3 (1500 mg BID, n=9): 0 | TEAE Anaemia Grade 4 (1500 mg BID, n=9): 0 | TEAE Anxiety Grade 1 (1500 mg BID, n=9): 0 | TEAE Anxiety Grade 2 (1500 mg BID, n=9): 1 | TEAE Arthralgia Grade 1 (1500 mg BID, n=9): 1 | TEAE Arthralgia Grade 2 (1500 mg BID, n=9): 1 | TEAE Constipation Grade 1 (1500 mg BID, n=9): 3 | TEAE Constipation Grade 2 (1500 mg BID, n=9): 0 | TEAE Contusion Grade 1 (1500 mg BID, n=9): 1 | TEAE Contusion Grade 2 (1500 mg BID, n=9): 1 | TEAE Cough Grade 1 (1500 mg BID, n=9): 0 | TEAE Cough Grade 2 (1500 mg BID, n=9): 1 | TEAE Decreased appetite Grade 1 (1500 mg BID, n=9): 2 | TEAE Decreased appetite Grade 2 (1500 mg BID, n=9): 1 | TEAE Decreased appetite Grade 3 (1500 mg BID, n=9): 1 | TEAE Diarrhea Grade 1 (1500 mg BID, n=9): 2 | TEAE Diarrhea Grade 2 (1500 mg BID, n=9): 1 | TEAE Dry skin Grade 1 (1500 mg BID, n=9): 1 | TEAE Dyspnoea Grade 1 (1500 mg BID, n=9): 1 | TEAE Dyspnoea Grade 2 (1500 mg BID, n=9): 0 | TEAE Dyspnoea Grade 3 (1500 mg BID, n=9): 1 | TEAE Epistaxis Grade 1 (1500 mg BID, n=9): 2 | TEAE Epistaxis Grade 2 (1500 mg BID, n=9): 0 | TEAE Epistaxis Grade 3 (1500 mg BID, n=9): 0 | TEAE Fall Grade 1 (1500 mg BID, n=9): 2 | TEAE Fatigue Grade 1 (1500 mg BID, n=9): 1 | TEAE Fatigue Grade 2 (1500 mg BID, n=9): 1 | TEAE Fatigue Grade 3 (1500 mg BID, n=9): 2 | TEAE Febrile neutropenia Grade 3 (1500 mg BID, n=9): 2 | TEAE General physical health deterioration Grade 3 (1500 mg BID, n=9): 2 | TEAE General physical health deterioration Grade 5 (1500 mg BID, n=9): 1 | TEAE Gingivitis Grade 1 (1500 mg BID, n=9): 0 | TEAE Haematuria Grade 1 (1500 mg BID, n=9): 0 | TEAE Haematuria Grade 2 (1500 mg BID, n=9): 0 | TEAE Haematuria Grade 3 (1500 mg BID, n=9): 1 | TEAE Headache Grade 1 (1500 mg BID, n=9): 0 | TEAE Headache Grade 2 (1500 mg BID, n=9): 0 | TEAE Headache Grade 3 (1500 mg BID, n=9): 1 | TEAE Hyperkalaemia Grade 1 (1500 mg BID, n=9): 0 | TEAE Hyperkalaemia Grade 4 (1500 mg BID, n=9): 0 | TEAE Hypertension Grade 2 (1500 mg BID, n=9): 2 | TEAE Hypertension Grade 3 (1500 mg BID, n=9): 0 | TEAE Hyperuricaemia Grade 1 (1500 mg BID, n=9): 1 | TEAE Hyperuricaemia Grade 3 (1500 mg BID, n=9): 0 | TEAE Hypokalaemia Grade 1 (1500 mg BID, n=9): 0 | TEAE Hypokalaemia Grade 2 (1500 mg BID, n=9): 1 | TEAE Hypokalaemia Grade 3 (1500 mg BID, n=9): 1 | TEAE Hyponatraemia Grade 1 (1500 mg BID, n=9): 0 | TEAE Hyponatraemia Grade 3 (1500 mg BID, n=9): 1 | TEAE Hypophosphataemia Grade 1 (1500 mg BID, n=9): 1 | TEAE Hypophosphataemia Grade 2 (1500 mg BID, n=9): 1 | TEAE Leukocytosis Grade 2 (1500 mg BID, n=9): 0 | TEAE Leukocytosis Grade 3 (1500 mg BID, n=9): 1 | TEAE Lung infection Grade 3 (1500 mg BID, n=9): 0 | TEAE Lung infection Grade 5 (1500 mg BID, n=9): 0 | TEAE Nausea Grade 1 (1500 mg BID, n=9): 1 | TEAE Nausea Grade 2 (1500 mg BID, n=9): 1 | TEAE Nausea Grade 3 (1500 mg BID, n=9): 2 | TEAE Oedema peripheral Grade 1 (1500 mg BID, n=9): 0 | TEAE Oedema peripheral Grade 3 (1500 mg BID, n=9): 1 | TEAE Pain in extremity Grade 1 (1500 mg BID, n=9): 0 | TEAE Pain in extremity Grade 2 (1500 mg BID, n=9): 1 | TEAE Pneumonia Grade 1 (1500 mg BID, n=9): 1 | TEAE Pneumonia Grade 2 (1500 mg BID, n=9): 0 | TEAE Pneumonia Grade 3 (1500 mg BID, n=9): 1 | TEAE Pneumonia fungal Grade 2 (1500 mg BID, n=9): 1 | TEAE Pneumonia fungal Grade 3 (1500 mg BID, n=9): 1 | TEAE Pneumonia fungal Grade 4 (1500 mg BID, n=9): 1 | TEAE Productive cough Grade 1 (1500 mg BID, n=9): 0 | TEAE Productive cough Grade 2 (1500 mg BID, n=9): 1 | TEAE Pyrexia Grade 1 (1500 mg BID, n=9): 2 | TEAE Pyrexia Grade 2 (1500 mg BID, n=9): 0 | TEAE Pyrexia Grade 3 (1500 mg BID, n=9): 3 | TEAE Rash Grade 1 (1500 mg BID, n=9): 0 | TEAE Rash Grade 2 (1500 mg BID, n=9): 2 | TEAE Sepsis Grade 4 (1500 mg BID, n=9): 0
